Results taken from US5739334A (Istituto Ricerca Francesco Angelini S.p.A., priority 1992, dated 1998).

Assays:
alpha 1 = experiment: Chemical bond studies: interference with alpha 1 receptor (% inhibition); type: binding; settings: table 2
serotonin 2 = experiment: Chemical bond studies: interference with serotonin 2 receptor (% inhibition); type: binding; settings: table 2
DL50 = type: in vivo; parameters: unit not given beside the values; settings: species, route and unit not given
[1] = attributed to action on adrenergic receptors (alpha 1 and alpha 2); cited from earlier work
[2] = Burger's Medicinal Chemistry, 4th ed. (1981); cited from earlier work

| SMILES | alpha 1 (% inhibition) (alpha 1; C = 10^-5 M) | alpha 1 (% inhibition) (alpha 1; C = 10^-7 M) | serotonine 2 (% inhibition) (serotonin 2; C = 10^-5 M) | serotonine 2 (% inhibition) (serotonin 2; C = 10^-7 M) | DL50 (DL50) | sporadic side effects [1] | clinical actions [2] |
| --- | --- | --- | --- | --- | --- | --- | --- |
| CC(CCn1nc2ccccn2c1=O)N1CCN(c2cccc(Cl)c2)CC1 (centres unmarked) [(I) R = R" = R"' = H; R' = CH3, 2-[3-[4-(3-chlorophenyl)-1-piperazinyl]-3-methylpropyl]-1,2,4-triazole-[4,3-a]-pyridin-3(2H)-one] | 91% | 26% | 100% | 59% | ≤ 300 | – | – |
| CC1CN(CCCn2nc3ccccn3c2=O)CCN1c1cccc(Cl)c1 (centres unmarked) [(I) R = R' = R" = H; R"' = CH3, 2-[3-[4-(3-chlorophenyl)-1-(3-methyl)-piperazinyl]-propyl]-1,2,4-triazole-[4,3-a]-pyridin-3(2H)-one] | 85% | 20% | 98% | 68% | ≤ 600 | – | – |
| CC1CN(c2cccc(Cl)c2)CCN1CCCn1nc2ccccn2c1=O (centres unmarked) [(I) R = R' = R"' = H; R" = CH3, 2-[3-[4-(3-chlorophenyl)-1-(2-methyl)-piperazinyl]-propyl]-1,2,4-triazole-[4,3-a]-pyridin-3(2H)-one] | 96% | 37% | 100% | 69% | 300 | – | – |
| CC(CN1CCN(c2cccc(Cl)c2)CC1)Cn1nc2ccccn2c1=O (centres unmarked) [(I) R' = R" = R"' = H; R = CH3, 2-[3-[4-(3-chlorophenyl)-1-piperazine]-2-methylpropyl]-1,2,4-triazole[4,3-a]-pyridin-3-(2H)-one] | 88% | 27% | 100% | 62% | ≤ 600 | – | – |
| O=c1n(CCCN2CCN(c3cccc(Cl)c3)CC2)nc2ccccn12 [trazodone] | – | – | – | – | ≥ 200 | hypotension and priapism | diazepine-like clinical actions |
